Experimental data published in ChEMBL document CHEMBL3769405, “Discovery of Potent and Selective Inhibitors of Phosphodiesterase 1 for the Treatment of Cognitive Impairment Associated with Neurodegenerative and Neuropsychiatric Diseases” (J Med Chem, 2016).
Values after ≈ are worked out from the molar mass of the structure shown.

Assays:
[1] = Inhibition of bovine brain PDE1 using fluorescent labeled cGMP as substrate after 15 mins by IMAP assay; set-up: species or system Bos taurus
[2] = Selectivity ratio of Ki for recombinant full lenght human PDE4A to bovine brain PDE1
[3] = Intrinsic clearance in human liver microsomes; type: ADME; conditions: read-out: CLH
[4] = biological target: 3',5'-cyclic-AMP phosphodiesterase 4A (Homo sapiens, UniProt P27815); assay: Inhibition of recombinant full lenght human PDE4A using fluorescent labeled cAMP as substrate after 15 mins by IMAP assay
Sequence of 3',5'-cyclic-AMP phosphodiesterase 4A (P27815 whole entry): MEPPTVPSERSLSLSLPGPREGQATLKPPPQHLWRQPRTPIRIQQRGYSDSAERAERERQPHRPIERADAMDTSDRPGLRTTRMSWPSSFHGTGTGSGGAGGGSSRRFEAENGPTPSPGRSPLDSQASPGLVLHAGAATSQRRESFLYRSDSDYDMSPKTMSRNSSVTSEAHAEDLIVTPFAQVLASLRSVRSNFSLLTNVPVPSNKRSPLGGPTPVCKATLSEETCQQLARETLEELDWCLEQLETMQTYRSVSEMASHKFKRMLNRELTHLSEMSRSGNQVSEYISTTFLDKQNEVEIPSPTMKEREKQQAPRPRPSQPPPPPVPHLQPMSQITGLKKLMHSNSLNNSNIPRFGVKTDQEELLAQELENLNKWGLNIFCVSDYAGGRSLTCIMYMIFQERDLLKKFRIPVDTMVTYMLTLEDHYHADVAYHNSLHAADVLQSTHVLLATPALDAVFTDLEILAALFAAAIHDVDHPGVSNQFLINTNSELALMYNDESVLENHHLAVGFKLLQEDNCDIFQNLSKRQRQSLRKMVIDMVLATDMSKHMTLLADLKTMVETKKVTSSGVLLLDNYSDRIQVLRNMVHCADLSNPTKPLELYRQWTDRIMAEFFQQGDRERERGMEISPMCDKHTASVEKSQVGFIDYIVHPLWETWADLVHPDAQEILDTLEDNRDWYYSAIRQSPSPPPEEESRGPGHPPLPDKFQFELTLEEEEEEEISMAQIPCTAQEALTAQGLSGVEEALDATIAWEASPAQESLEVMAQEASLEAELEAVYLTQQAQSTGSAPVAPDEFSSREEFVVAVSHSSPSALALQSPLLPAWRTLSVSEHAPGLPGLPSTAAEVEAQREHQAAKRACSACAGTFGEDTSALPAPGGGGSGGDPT

[5] = in vivo; conditions: C57BL/6, mouse, brain/plasma
[6] = Cmax in C57BL/6 mouse brain at 10 mg/kg administered through oral gavage; type: ADME, organism-based; set-up: dose 10 mg/kg, route oral
[7] = Lipophilicity, logD of compound at pH 7.4; type: physicochemical; conditions: buffer
[8] = Solubility of compound in PBS; type: physicochemical
[9] = Lipophilicity, logD of compound at pH 1.7; type: physicochemical; conditions: buffer
[10] = Cmax in C57BL/6 mouse plasma at 10 mg/kg administered through oral gavage; type: ADME, organism-based; set-up: dose 10 mg/kg, route oral
[11] = AUClast in C57BL/6 mouse brain at 10 mg/kg administered through oral gavage; type: ADME, organism-based; set-up: dose 10 mg/kg, time 0 - last, route oral
[12] = AUClast in C57BL/6 mouse plasma at 10 mg/kg administered through oral gavage; type: ADME, organism-based; set-up: dose 10 mg/kg, time 0 - last, route oral

| Structure (SMILES) | Ki [1] [nM] | Ratio Ki [2] | CLint scaled [3] [mL/min/kg] | Ki [4] [nM] | Kp [5] | Cmax [6] [ng/mL] | logD [7] | solubility [8] [µM] | logD [9] | Cmax [10] [ng/mL] | AUC(0-t) [11] [ng·h/mL] | AUC(0-t) [12] [ng·h/mL] |
| --- | --- | --- | --- | --- | --- | --- | --- | --- | --- | --- | --- | --- |
| CN1Cc2c(nn(Cc3ccc(-c4ccccn4)cc3)c2Nc2ccccc2)N2C1=N[C@@H]1CCC[C@@H]12 | 25 | 720 | 59 | 18000 |  |  |  |  |  |  |  |  |
| CN1C(=O)c2c(nn(Cc3ccc(-c4ccccn4)cc3)c2Nc2ccccc2)N2C1=N[C@H]1CCC[C@H]12 | 5.3 |  | 72 | 8400 |  |  |  |  |  |  |  |  |
| CN1C(=O)c2c(nn(Cc3ccc(-c4cccc(F)n4)cc3)c2Sc2ccccc2)N2C1=N[C@@H]1CCC[C@@H]12 | 5.2 | 179 | 208 | 930 | 0.8 | 71 | > 5 | < 1 | 2.49 | 93 | 81 | 108 |
| CN1C(=O)c2c(nn(Cc3ccc(S(N)(=O)=O)cc3)c2Nc2ccccc2)N2C1=N[C@@H]1CCC[C@@H]12 | 1.4 | 857 |  | 1200 | 0.02 | 16 | 1.96 | > 100 | -0.96 | 650 | 15 | 785 |
| CN1C(=O)c2c(nn(Cc3ccc(-c4cccc(F)n4)cc3)c2N)N2C1=N[C@@H]1CCC[C@@H]12 | 5.8 | 414 |  | 2400 |  |  |  |  |  |  |  |  |
| CN1C(=O)c2c(Nc3ccccc3)nn(CC3CCCC3)c2N2C1=N[C@@H]1CCC[C@@H]12 | 770 | 2.6 |  | 2000 |  |  |  |  |  |  |  |  |
| CN1C(=O)c2c(nn(Cc3ccc(-c4cccc(F)n4)cc3)c2Oc2ccccc2)N2C1=N[C@@H]1CCC[C@@H]12 | 3 | 83 | 214 | 250 | 0.9 | 170 | 4.61 | 8 (≈ 4.07 µg/mL) | 1.05 | 165 | 192 | 210 |
| CC(C)[C@@H]1CN2C(=N1)N(C)C(=O)c1c2nn(Cc2ccc(-c3ccccc3)cc2)c1Nc1ccccc1 | 2.3 | 652 |  | 1500 |  |  |  |  |  |  |  |  |
| O=C1NC2=N[C@@H]3CCC[C@@H]3N2c2nn(Cc3ccc(C(F)(F)F)cc3)c(Nc3ccccc3)c21 | 290 | 2 | 22 | 550 |  |  |  |  |  |  |  |  |
| CN1C(=O)c2c(nn(Cc3ccc(-c4ncccc4F)cc3)c2Nc2ccccc2)N2C1=N[C@@H]1CCC[C@@H]12 | 0.073 | 2740 | 276 | 200 |  |  |  |  |  |  |  |  |
| CN1C(=O)c2c(nn(Cc3ccc(-c4cc(F)ccn4)cc3)c2Nc2ccccc2)N2C1=N[C@@H]1CCC[C@@H]12 | 0.062 | 5320 | 218 | 330 |  |  |  |  |  |  |  |  |
| C[C@@H]1CN2C(=N1)N(C)C(=O)c1c2nn(Cc2ccc(-c3ccccc3)cc2)c1Nc1ccccc1 | 3.3 | 1030 |  | 3400 |  |  |  |  |  |  |  |  |
| CN1C(=O)c2c(nn(Cc3ccc(-c4cccc(F)n4)cc3)c2Nc2ccccc2)N2C1=N[C@H]1CCC[C@H]12 | 5.4 |  | 51 |  |  |  |  |  |  |  |  |  |
| CN1C(=N)c2c(nn(Cc3ccc(C(F)(F)F)cc3)c2Nc2ccccc2)N2C1=N[C@@H]1CCC[C@@H]12 | 2800 | 6.4 | 32 | 18000 |  |  |  |  |  |  |  |  |
| CN1C(=O)c2c(nn(Cc3ccc(-c4cccc(F)n4)cc3)c2NC2CCCC2)N2C1=N[C@@H]1CCC[C@@H]12 | 24 | 229 |  | 5500 |  |  |  |  |  |  |  |  |

Further molecules by falling Ki [1], results first:

| Ki [1] [nM] | Ratio Ki [2] | CLint scaled [3] [mL/min/kg] | Ki [4] [nM] | Kp [5] | Cmax [6] [ng/mL] | logD [7] | solubility [8] [µM] | logD [9] | Cmax [10] [ng/mL] | AUC(0-t) [11] [ng·h/mL] | AUC(0-t) [12] [ng·h/mL] | Structure (SMILES) |
| --- | --- | --- | --- | --- | --- | --- | --- | --- | --- | --- | --- | --- |
| 390 | 33 |  | 13000 |  |  |  |  |  |  |  |  | CN1C(=O)c2c(nn(Cc3ccc(-c4ccccc4)cc3)c2Nc2ccccc2)N2C[C@@H](Cc3ccccc3)N=C12 |
| 160 | 29 |  | 4600 |  |  |  |  |  |  |  |  | CN1C(=O)c2c(nn(Cc3ccc(-c4cccc(F)n4)cc3)c2N2CCCC2)N2C1=N[C@@H]1CCC[C@@H]12 |
| 65 | > 1500 |  | > 100000 |  |  |  |  |  |  |  |  | CN1C(=O)c2c(nn(Cc3ccc(-c4ccccc4)cc3)c2Nc2ccccc2)N2CCCN=C12 |
| 29 | 1520 |  | 44000 |  |  |  |  |  |  |  |  | CN1C(=O)c2c(nn(Cc3ccc(-c4ccccc4)cc3)c2Nc2ccccc2)N2CCN=C12 |
| 8 | 3750 |  | 30000 |  |  |  |  |  |  |  |  | C[C@H]1CN=C2N(C)C(=O)c3c(nn(Cc4ccc(-c5ccccc5)cc4)c3Nc3ccccc3)N21 |
| 6.6 | 33 | 266 | 220 | 0.9 | 64 | 4.77 | 7 (≈ 3.69 µg/mL) | 1.21 | 88 | 102 | 119 | CN1C(=O)c2c(nn(Cc3ccc(-c4cccc(F)n4)cc3)c2Oc2ccc(F)cc2)N2C1=N[C@@H]1CCC[C@@H]12 |
| 0.074 | 6760 | 125 | 500 |  |  |  |  |  |  |  |  | CN1C(=O)c2c(nn(Cc3ccc(-c4ccc(F)cn4)cc3)c2Nc2ccccc2)N2C1=N[C@@H]1CCC[C@@H]12 |
